The values that follow come from article PMC3454380, “Chloroplast NADPH-Dependent Thioredoxin Reductase from Chlorella vulgaris Alleviates Environmental Stresses in Yeast Together with 2-Cys Peroxiredoxin” (PLoS ONE, 2012).

Assay [1] addresses T1, His-mCvNTRC (mature C. vulgaris NTRC) (Chlorella vulgaris, UniProt B9ZYY5).
T1 construct: gene CvNTR-C; mature form (NTR domain plus C-terminal Trx domain) without transit peptide, C-terminal His-tag, pET-29b(+), E. coli BL21(DE3)pLysS
T1 sequence (B9ZYY5 58-529): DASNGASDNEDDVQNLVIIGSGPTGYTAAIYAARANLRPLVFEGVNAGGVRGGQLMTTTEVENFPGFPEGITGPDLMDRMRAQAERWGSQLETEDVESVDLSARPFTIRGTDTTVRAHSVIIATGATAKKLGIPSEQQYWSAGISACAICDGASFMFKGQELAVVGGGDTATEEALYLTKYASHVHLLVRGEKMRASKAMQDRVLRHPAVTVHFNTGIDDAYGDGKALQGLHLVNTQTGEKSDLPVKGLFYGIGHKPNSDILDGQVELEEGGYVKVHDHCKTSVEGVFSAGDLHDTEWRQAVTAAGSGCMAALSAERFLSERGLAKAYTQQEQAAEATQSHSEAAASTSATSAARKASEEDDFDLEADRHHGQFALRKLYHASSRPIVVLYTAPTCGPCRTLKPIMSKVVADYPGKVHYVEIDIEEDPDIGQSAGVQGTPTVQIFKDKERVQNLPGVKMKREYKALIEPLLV
Briefly: NADPH oxidation at […] nm, coupled to His-mCvPrx and peroxide. Type of assay: biochemical. The settings on record: 300 uM NADPH, 100 uM peroxide, 4.0 uM His-mCvNTRC, 4.0 uM His-mCvPrx, 1 mM EDTA, 50 mM Na-phosphate pH 7.0.

The target in assay [2] is T2, His-mCvPrx (mature C. vulgaris 2-Cys Prx) (Chlorella vulgaris, UniProt K4PW22).
T2 construct: mature form without predicted chloroplast transit peptide, bp 161-745 of cDNA, 194 residues of 239 (46-239 if ORF starts at bp 26); His-tagged, pTrc99A, E. coli JM109, five synonymous rare-codon changes
T2 sequence (K4PW22 46-239): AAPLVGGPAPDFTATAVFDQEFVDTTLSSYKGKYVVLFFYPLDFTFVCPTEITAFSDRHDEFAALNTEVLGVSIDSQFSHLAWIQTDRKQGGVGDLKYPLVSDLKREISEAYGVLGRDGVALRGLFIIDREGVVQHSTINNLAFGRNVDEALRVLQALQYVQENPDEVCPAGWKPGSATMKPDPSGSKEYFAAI
Briefly: NADPH oxidation at […] nm, reconstituted with His-mCvNTRC. The class given is biochemical. The settings on record: 300 uM NADPH, 4.0 uM His-mCvPrx, 4.0 uM His-mCvNTRC as reductant, 1 mM EDTA, 50 mM Na-phosphate pH 7.0.

Turning to `NC(=O)C1=CN([C@@H]2O[C@H](COP(=O)(O)OP(=O)(O)OC[C@H]3O[C@@H](n4cnc5c(N)ncnc54)[C@H](OP(=O)(O)O)[C@@H]3O)[C@@H](O)[C@H]2O)C=CC1` [NADPH], in assay [1], the specific activity entry is “the mCvNTRC/mCvPrx system used NADPH as a specific coenzyme to reduce peroxides”.
As to `O=NOO` [peroxynitrite], in assay [2] (100 uM peroxynitrite), the specific activity result is “the mCvNTRC/mCvPrx antioxidant system could decompose ONOO^−”.
Take `CC(C)(C)OO` [tert-butyl hydroperoxide]: the specific activity result in assay [2] (100 uM t-BOOH) was “a remarkably high rate of NADPH oxidation against both H2O2 and t-BOOH”.
